# Patent US8946234B2, “Halogen-substituted compounds” (Bayer CropScience AG, priority 2008, dated 2015)
# Assay: physchem
# Format: physicochemical
# Details: not given
# Experimental: ^a) Note regarding the determination of the log P values and mass detection: The log P values given were determined in accordance with EEC Directive 79/831 Annex V.A8 by HPLC (High Performance Liquid Chromatography) on a phase inversion column (C18). Agilent 1100 LC system; 50*4.6 Zorbax Eclipse Plus C18 1.8 micron; eluent A: acetonitrile (0.1% formic acid); eluent B: water (0.09% formic acid); linear gradient from 10% acetonitrile to 95% acetonitrile in 4.25 min, then 95% acetonitrile for a further 1.25 min; oven temperature 55° C.; flow: 2.0 ml/min. The mass detection is carried out via an Agilend MSD system.
row,SMILES,logP
1,CCN(CC)C(=O)COC(=O)c1cc(NC(=O)c2c(C(F)(F)F)c(C(F)(F)C(F)(F)F)nn2C)ccc1Cl [Ik-109],4.11^a)
2,Cn1nc(C(F)(F)C(F)(F)F)c(C(F)(F)F)c1C(=O)Nc1ccc(Br)c(C(=O)NCc2ccccc2)c1 [Ik-172],4.03^a)
3,CCC(C)NC(=O)c1cc(NC(=O)c2c(C(F)(F)F)c(C(F)(F)C(F)(F)F)nn2C)ccc1Cl (centres unmarked) [Ik-91],3.87^a)
4,CC(C)NC(=O)c1cccc(NC(=O)c2c(C(F)(F)F)c(C(F)(F)C(F)(F)F)nn2C)c1Cl [Ik-77],3.47^a)
5,Cn1nc(C(F)(F)C(F)(F)F)c(C(F)(F)F)c1C(=O)Nc1cc(F)c(Br)c(C(=O)NCC(F)(F)F)c1 [Ik-228],3.88^a)
6,Cn1nc(C(F)(F)C(F)(F)F)c(C(F)(F)F)c1C(=O)Nc1cc(C(=O)NC2CC2)c(F)cc1Cl [Ik-148],3.53^a)
7,Cc1nc(C(F)(F)F)ncc1C(=O)Nc1ccc(Cl)c(C(=O)NCc2ccccc2)c1 [Ib-22],2.94^a)
8,Cn1nc(C(F)(F)C(F)(F)F)c(C(F)(F)F)c1C(=O)Nc1cc(F)cc(C(=O)NCc2ccccc2)c1 [Ik-162],4.05^a)
9,Cn1nc(C(F)(F)C(F)(F)F)c(C(F)(F)F)c1C(=O)Nc1cc(F)c(Cl)c(C(=O)NCC(F)(F)F)c1 [Ik-190],3.91^a)
10,Cn1nc(C(F)(F)C(F)(F)F)c(C(F)(F)F)c1C(=O)Nc1cc(C(=O)NCc2ccccc2)c(Cl)cc1F [Ik-142],4.00^a)
11,Cn1nc(C(F)(F)C(F)(F)F)c(C(F)(F)F)c1C(=O)Nc1ccc(F)c(C(=O)NCc2ccccc2)c1 [Ik-157],3.95^a)
12,CC(NC(=O)c1cc(NC(=O)c2c(C(F)(F)F)c(C(F)(F)C(F)(F)F)nn2C)ccc1F)C(F)(F)F (centres unmarked) [Ik-161],3.89^a)
13,CC(C)NC(=O)c1cc(NC(=O)c2c(Br)c(C(F)(F)C(F)(F)F)nn2C)ccc1Cl [Ik-27],3.49^a)
14,Cn1nc(C(F)(F)C(F)(F)C(F)(F)C(F)(F)F)c(I)c1C(=O)Nc1ccc(Cl)c(C(=O)NCC=CCl)c1 [Ik-269],4.27^a)
15,Cn1nc(C(F)(F)C(F)(F)F)c(C(F)(F)F)c1C(=O)Nc1ccc(Cl)c(C(=O)OCC(=O)NC(N)=O)c1 [Ik-110],3.10^a)
16,Cn1nc(C(F)F)c(C(F)(F)F)c1C(=O)Nc1ccc(Cl)c(C(=O)NCC=CCl)c1 [Ik-232],2.92^a)
17,O=C(NCc1ccccc1)c1cc(NC(=O)c2cnc(C(F)(F)C(F)(F)F)nc2C(F)(F)C(F)(F)F)ccc1Cl [Ib-35],4.20^a)
18,CN(C(=O)c1c(C(F)(F)F)c(C(F)(F)C(F)(F)F)nn1C)c1ccc(Cl)c(C(=O)NCC(F)(F)F)c1 [Ik-133],3.66^a)
19,Cn1nc(C(F)(F)F)c(Cl)c1C(=O)Nc1ccc(Cl)c(C(=O)NCc2ccccc2)c1 [Ik-20],3.46^a)
20,Cn1nc(C(F)(F)C(F)(F)F)c(C(F)(F)F)c1C(=O)Nc1ccc(Cl)c(C(=O)NS(C)(=O)=O)c1 [Ik-24],3.13^a)
21,O=C(NCC(F)(F)F)c1cc(NC(=O)c2ccc(C(F)(F)F)nc2Cl)ccc1Cl [Ir-9],2.82^a)
22,Cn1nc(OCC(F)(F)F)c(I)c1C(=O)Nc1ccc(Cl)c(C(=O)NCC(F)(F)F)c1 [Ik-244],3.24^a)
23,CC(C)CNC(=O)c1cc(NC(=O)c2c(C(F)(F)F)c(C(F)(F)C(F)(F)F)nn2C)ccc1Cl [Ik-92],3.90^a)
24,CSc1c(Cl)cc(NC(=O)c2c(C(F)(F)F)c(C(F)(F)C(F)(F)F)nn2C)cc1C(=O)NCc1ccccc1 [Ik-202],4.39^a)
25,Cn1nc(C(F)(F)C(F)(F)C(F)(F)C(F)(F)F)cc1C(=O)Nc1ccc(Cl)c(C(=O)NC2CC2)c1 [Ik-266],3.74^a)
26,Cn1nc(C(F)(F)C(F)(F)F)c(C(F)(F)F)c1C(=O)Nc1cc(C(=O)NC2CC2F)c(Cl)cn1 (centres unmarked) [Ik-314],3.14^a)
27,Cn1nc(C(F)(F)OC(F)(F)C(F)(F)OC(F)(F)F)c(I)c1C(=O)Nc1ccc(Cl)c(C(=O)NC2CC2)c1 [Ik-264],3.66^a)

row,SMILES,logP
1,CC(C)NC(=O)c1cc(NC(=O)c2ncc(C(F)(F)F)cc2Cl)ccc1Cl [Ii-2],2.73^a)
2,O=C(Nc1cc(Br)c(Cl)c(C(=O)NC2CC2)c1)c1cnc(C(F)(F)C(F)(F)F)nc1C(F)(F)F [Ib-36],3.62^a)
3,O=C(NCc1ccccc1)c1cc(NC(=O)c2cnc(C(F)(F)C(F)(F)F)nc2C(F)F)ccc1Cl [Ib-29],3.51^a)
4,CC(C)(C)n1nc(C(F)(F)C(F)(F)F)c(C(F)(F)F)c1C(=O)Nc1ccc(Cl)c(C(=O)NC2CC2)c1 [Ik-167],4.17^a)
5,CN(C)C(=O)COC(=O)c1cc(NC(=O)c2c(C(F)(F)F)c(C(F)(F)C(F)(F)F)nn2C)ccc1Cl [Ik-108],3.57^a)
6,O=C(NCC=CCl)c1cc(NC(=O)c2ncc(C(F)(F)F)cc2Cl)ccc1Cl [Ii-4],2.93^a)
7,Cn1nc(OC(F)F)c(Cl)c1C(=O)Nc1ccc(Cl)c(C(=O)NC2CC2)c1 [Ik-238],2.52^a)
8,O=C(NCC(F)(F)F)c1cc(NC(=O)c2cnc(C(F)(F)C(F)(F)F)nc2C(F)(F)F)ccc1Cl [Ib-9],3.53^a)
9,CC(NC(=O)c1cc(NC(=O)c2c(Cl)c(C(F)(F)F)nn2C)ccc1Cl)C(F)(F)F (centres unmarked) [Ik-152],3.44^a)
10,O=C(NCc1ccccc1)c1cc(NC(=O)c2cnc(C(F)(F)C(F)(F)C(F)(F)F)nc2C(F)(F)F)ccc1Cl [Ib-18],4.13^a)
11,CSc1c(F)cc(NC(=O)c2c(C(F)(F)F)c(C(F)(F)C(F)(F)F)nn2C)cc1C(=O)NC1CC1 [Ik-191],3.57^a)
12,Cn1nc(C(F)(F)F)c(Br)c1C(=O)Nc1ccc(Cl)c(C(=O)NC2CC2)c1 [Ik-21],2.75^a)
13,CCOC(=O)c1cc(NC(=O)c2c(C(F)(F)F)c(C(F)(F)C(F)(F)F)nn2C)ccc1Cl [Ik-103],4.42^a)
14,O=C(NCC=CCl)c1cc(NC(=O)c2nccc(C(F)(F)F)c2Cl)ccc1Cl [Ie-4],2.92^a)
15,Cn1nc(-c2ccc(OC(F)(F)F)cc2)c(Br)c1C(=O)Nc1ccc(Cl)c(C(=O)NC2CC2)c1 [Ik-251],3.76^a)
16,Cn1nc(C(F)(F)C(F)(F)F)c(C(F)(F)F)c1C(=O)Nc1cc(Br)c(Br)c(C(=O)NCC(F)(F)F)c1 [Ik-209],4.18^a)
17,Cn1nc(C(F)(F)C(F)(F)F)c(C(F)(F)F)c1C(=O)Nc1cc(F)c(Cl)c(C(=O)NCc2ccccc2)c1 [Ik-189],4.14^a)
18,Cc1nc(C(F)(F)C(F)(F)F)nc(C)c1C(=O)Nc1ccc(Cl)c(C(=O)NCC=CCl)c1 [Ib-13],3.26^a)
19,CC(NC(=O)c1cc(NC(=O)c2cnc(C(F)(F)C(F)(F)F)nc2C(F)(F)F)ccc1Cl)C1CC1 (centres unmarked) [Ib-37],3.76^a)
20,COCN(C(=O)c1c(C(F)(F)F)c(C(F)(F)C(F)(F)F)nn1C)c1ccc(Cl)c(C(=O)NC2CC2)c1 [Ik-135],3.51^a)
21,Cn1nc(C(F)(F)C(F)(F)F)c(C(F)(F)F)c1C(=O)Nc1cc(C(=O)NC2CC2)c(Cl)cn1 [Ik-318],3.24^a)
22,CCN(C(=O)c1c(C(F)(F)F)c(C(F)(F)C(F)(F)F)nn1C)c1ccc(Cl)c(C(=O)NCC(F)(F)F)c1 [Ik-138],3.81^a)
23,Cn1nc(C(F)(F)C(F)(F)F)c(C(F)(F)F)c1C(=O)Nc1ccc(Cl)c(C(=O)NCC=CCl)c1 [Ik-83],3.72^a)
24,Cn1nc(-c2ccc(F)cc2)c(Br)c1C(=O)Nc1ccc(Cl)c(C(=O)NC2CC2)c1 [Ik-248],3.04^a)
25,CC(NC(=O)c1cc(NC(=O)c2c(Br)c(C(F)(F)C(F)(F)F)nn2C)ccc1Cl)C(F)(F)F (centres unmarked) [Ik-11],2.00^a)
26,Cn1nc(C(F)(F)C(F)(F)F)c(C(F)(F)F)c1C(=O)Nc1cc(C(=O)NC2CC2)c(F)cc1F [Ik-145],3.32^a)
27,O=C(NC1CC1)c1cc(NC(=O)c2[nH]nc(C(F)(F)F)c2C(F)(F)F)ccc1Cl [Ik-197],2.55^a)

# Same assay, conditions: HPLC method a), eluent acetonitrile/water with formic acid; read-out: logP
row,SMILES,chromatographic logP
1,Cn1nc(C(F)(F)C(F)(F)C(F)(F)F)c(Br)c1C(=O)O [4-Bromo-1-methyl-3-heptafluoropropyl-1H-pyrazole-5-carboxylic acid],2.26
2,Cn1ccc(C(F)(F)C(F)(F)C(F)(F)F)n1 [1-Methyl-3-heptafluoropropyl-1H-pyrazole],2.84
3,Cn1ccc(C(F)(F)C(F)(F)C(F)(F)C(F)(F)F)n1 [1-Methyl-3-nonafluorobutyl-1H-pyrazole],3.38

# Same assay, conditions: HPLC phase inversion (reversed-phase) C18 column, HPLC method a), eluent acetonitrile/water with formic acid; read-out: logP
row,SMILES,chromatographic logP
1,"Cn1nc(C(F)(Cl)C(F)(F)F)c(Br)c1C(=O)O (centres unmarked) [4-Bromo-1-methyl-3-(1-chloro-1,2,2,2-tetrafluoroethyl)-1H-pyrazole-5-carboxylic acid]",2.43
2,"Cn1nc(C(F)(F)F)c(C(F)(F)F)c1C(=O)Nc1ccc(Cl)c(C(=O)NCC(F)(F)F)c1 [Ik-125, N-{4-Chloro-3-[(2,2,2-trifluoroethyl)carbamoyl]-phenyl}-1-methyl-3,4-bis(trifluoromethyl)-1H-pyrazole-5-carboxamide]",3.25
3,"CCOC(=O)c1c(C)nc(C(F)(F)C(F)(F)F)nc1C [Ethyl 4,6-dimethyl-2-(pentafluoroethyl)pyrimidine-5-carboxylate]",3.68
4,Cn1ccc(C(F)(F)OC(F)(F)OC(F)(F)F)n1 [3-{[Difluoro(trifluoromethoxy)methoxy](difluoro)methyl}-1-methyl-1H-pyrazole],3.79
5,"Cn1nc(C(F)(F)C(F)(F)F)c(C(F)(F)F)c1C(=O)Nc1ccc(Cl)c(C(=O)O)c1 [Ik-2, 2-Chloro-5-({[1-methyl-3-(pentafluoroethyl)-4-(trifluoromethyl)-1H-pyrazol-5-yl]carbonyl}amino)benzoic acid]",3.22
6,O=C(O)c1[nH]nc(C(F)(F)C(F)(F)F)c1C(F)(F)F [3-(Pentafluoroethyl)-4-(trifluoromethyl)-1H-pyrazole-5-carboxylic acid],2

# Same assay, conditions: HPLC phase inversion (reversed-phase) C18 column, HPLC on C18 phase inversion column, method a); read-out: logP
row,SMILES,chromatographic logP
1,"Cn1nc(C(F)(F)F)c(C(F)(F)F)c1C(=O)Nc1ccc(Cl)c(C(=O)NCC(F)(F)F)c1 [Ik-125, N-{4-Chloro-3-[(2,2,2-trifluoroethyl)carbamoyl]-phenyl}-1-methyl-3,4-bis(trifluoromethyl)-1H-pyrazole-5-carboxamide]",3.25

# Same assay, conditions: HPLC phase inversion (reversed-phase) C18 column, HPLC, method a); read-out: logP
row,SMILES,chromatographic logP
1,"Cn1nc(C(F)(F)C(F)(F)F)c(C(F)(F)F)c1C(=O)Nc1ccc(Cl)c(C(=O)O)c1 [Ik-2, 2-Chloro-5-({[1-methyl-3-(pentafluoroethyl)-4-(trifluoromethyl)-1H-pyrazol-5-yl]carbonyl}amino)benzoic acid]",3.22
